Nc1ccc(S(=O)(=O)Nc2ccc(Cl)nn2)cc1
solubility (mole fraction)
Conditions	in 1,4-dioxane	in acetone	in acetonitrile	in ethanol	in ethyl acetate	in isopropanol	in methanol	in n-butanol	in water
283.15 K	0.0994	0.0647	0.0187	0.00381	0.0135	0.0031	0.00473	0.00335	2.25e-05
288.15 K	0.106	0.0715	0.0193	0.00432	0.0141	0.00345	0.00513	0.00372	3.31e-05
293.15 K	0.116	0.0804	0.0202	0.00484	0.0152	0.00382	0.00569	0.00421	4.39e-05
298.15 K	0.129	0.0908	0.0213	0.00543	0.0165	0.00429	0.00627	0.00474	5.9e-05
303.15 K	0.143	0.102	0.0224	0.00616	0.0179	0.00476	0.00696	0.00531	7.53e-05
308.15 K	0.159	0.116	0.0239	0.00689	0.0198	0.00538	0.00779	0.00596	9.52e-05
313.15 K	0.179	0.131	0.0258	0.00777	0.0219	0.00614	0.00867	0.00676	0.000119
318.15 K	0.204	0.147	0.0283	0.00879	0.0244	0.00702	0.00966	0.00768	0.000149
323.15 K	0.235	0.165	0.0312	0.0101	0.0268	0.00792	0.0109	0.00867	0.000184
